Results on 10 molecules are retold here after paper PMC10218941, “Design, Synthesis, Antiproliferative Actions, and DFT Studies of New Bis–Pyrazoline Derivatives as Dual EGFR/BRAF^V600E Inhibitors” (International Journal of Molecular Sciences, 2023).

Several values for one entry are separate records, joined by “and”; a condition that tells them apart may be missing. Equal values may be shown once. Read-outs that look alike come from different tables or passages of the source.

For series [1], the system named is Panc-1 (pancreatic cancer cell line). Description: Antiproliferative assay (MTT), Panc-1. It counts as cell-based. The following applies: Homo sapiens, read-out: Antiproliferative Activity IC50 ± SEM (µM) Panc-1. On the procedure: (§1) The antiproliferative activity of pyrazoline hybrids 8–17 was tested against the four human cancer cell lines Panc-1 (pancreatic cancer cell line), MCF-7 (breast cancer cell line), HT-29 (colon cancer cell line), and A-549 (lung cancer cell line) using the MTT assay and doxorubicin as the reference drug. See Appendix SA (Supplementary File). […]
(§2) 4.2.1.2. Assay for antiproliferative effect
(§3) To explore the antiproliferative potential of compounds propidium iodide fluorescence assay was performed using different cell lines such as Panc -1 (pancreas cancer cell line), MCF-7 (breast cancer cell line), HT-29 (colon cancer cell line) and A-549 (epithelial cancer cell line), respectively. To calculate the total nuclear DNA, a fluorescent dye (propidium iodide, PI) is used which can attach to the DNA, thus offering a quick and precise technique. PI cannot pass through the cell membrane and its signal intensity can be considered as directly proportional to quantity of cellular DNA. Cells whose cell membranes are damaged or have changed permeability are counted as dead ones. The assay was performed by seeding the cells of different cell lines at a density of 3000-7500 cells/well (in200μl medium) in culture plates followed by incubation for 24h at 37 °C in humidified 5%CO2/95% air atmospheric conditions. The medium was removed; the compounds were added to the plates at 10 μM concentrations (in 0.1% DMSO) in triplicates, followed by incubation for 48h. DMSO (0.1%) was used as control. After incubation, medium was removed followed by the addition of PI (25 μl, 50μg/mL in water/medium) to each well of the plates. At - 80 °C, the plates were allowed to freeze for 24 h, followed by thawing at 25 °C. A fluorometer (Polar-Star BMG Tech) was used to record the readings at excitation and emission wavelengths of 530 and 620 nm for each well. The percentage cytotoxicity of compounds was calculated using […]
(§4) Where ATC= Absorbance of treated cells and AC= Absorbance of control. Erlotinib was used as positive control in the assay. […]

Series [2] deals with A-549 (lung cancer cell line). Description: Antiproliferative assay (MTT), A-549. It counts as cell-based. The following applies: Homo sapiens, A549; read-out: Antiproliferative Activity IC50 ± SEM (µM) A-549. On the procedure: (§5) The antiproliferative activity of pyrazoline hybrids 8–17 was tested against the four human cancer cell lines Panc-1 (pancreatic cancer cell line), MCF-7 (breast cancer cell line), HT-29 (colon cancer cell line), and A-549 (lung cancer cell line) using the MTT assay and doxorubicin as the reference drug. See Appendix SA (Supplementary File).
(§6) 4.2. Biological evaluation
(§7) 4.2.1. Cytotoxic activity using MTT Assay and evaluation of IC50 […]
(§8) 96-well flat-bottomed cell culture plates were used to seed the cells at a […]
(§9) of 10^4 cells mL-1. The medium was aspirated from all the wells of culture plates after 24 h followed by the addition of synthesized compounds (in 200 μL medium to yield a final concentration of 0.1% (v/v) dimethyl sulfoxide) into individual wells of the plates. Four wells were designated to a single compound. The plates were allowed to incubate at 37°C for 96 h. Afterwards, the medium was aspirated and 3 -[4,5-dimethylthiazol-2-yl]-2,5-diphenyltetrazolium bromide (MTT) (0.4 mg/mL) in medium was added to each well and subsequent ly incubated for 3 h. The medium was aspirated and 150 μL dimethyl sulfoxide (DMSO) was added to each well. The plates were vortexed followed by the measurement of absorbance at 540 nm on a microplate reader. The results were presented as inhibition (%) of proliferation in contrast to controls comprising 0.1% 4.2.1.2. Assay for antiproliferative effect
as §3, §4

Series [3] has as its system HT-29 (colon cancer cell line). Description: Antiproliferative assay (MTT), HT-29. The format is cell-based. The following applies: Homo sapiens, read-out: Antiproliferative Activity IC50 ± SEM (µM) HT-29. How it is done: as §1, §2, §3, §4
The test system of series [4] is MCF-7 (breast cancer cell line). Description: Antiproliferative assay (MTT), MCF-7. The following applies: Homo sapiens, MCF7; read-out: Antiproliferative Activity IC50 ± SEM (µM) MCF-7. It counts as cell-based. How it is done:
as §5, §6, §7, §8, §9, §3, §4

In series [5] the test system is four human cancer cell lines (A-549, MCF-7, Panc-1, HT-29). Description: Antiproliferative assay, mean of four cancer cell lines (GI50). The following applies: mean over A-549, MCF-7, Panc-1, HT-29. It counts as cell-based.
The nature of series [6]: Cell viability assay (MTT) on normal mammary epithelial cells. The following applies: human, MCF-10A normal mammary gland epithelial cells, MCF-10A cells, four days. The format is cell-based. On the procedure:
To test the viability of new substances, the epithelial (MCF-10A) cell line of the normal human mammary gland was used. Compounds 8–17 were incubated for four days on MCF-10A cells before being tested for viability using the MTT assay. According to Table 1, none of the substances tested were cytotoxic, and cell viability at 50 µM was greater than 87% for the compounds tested.
The normal human mammary gland epithelial (MCF-10A) cell line was used to test the viability of new compounds [46, 47]. See Appendix SA (Supplementary File).
as §6
4.2.1. Cytotoxic activity using MTT Assay and evaluation of IC50
MTT assay was performed to investigate the effect of the synthesized compounds on mammary epithelial cells (MCF-10A). The cells were propagated in medium consisting of Ham's F-12 medium/ Dulbecco's modified Eagle's medium (DMEM) (1:1) supplemented with 10% foetal calf serum, 2 mM glutamine, insulin (10 μg/mL), hydrocortisone (500 ng/mL) and epidermal growth factor (20 ng/mL). Trypsin ethylenediamine tetra acetic acid (EDTA) was used to passage the cells after every 2-3 days. 96-well flat-bottomed cell culture plates were used to seed the cells at a […]
as §9, with “The results were presented as inhibition (%) of proliferation in contrast to controls comprising 0.1% 4.2.1.2. Assay for antiproliferative effect” left out

For series [7], the system named is BRAF^V600E. On the set-up: method as in PMID 35424523. The following applies: cited from earlier work.
For series [8], the target named is T1, EGFR (Homo sapiens, UniProt P00533).
T1 construct: 645–1186); His6 (N); made in house; host or cells: Sf-9 insect cells (baculovirus; pBlueBacHis2B / pFASTBacHTc
T1 sequence (P00533 669-1210): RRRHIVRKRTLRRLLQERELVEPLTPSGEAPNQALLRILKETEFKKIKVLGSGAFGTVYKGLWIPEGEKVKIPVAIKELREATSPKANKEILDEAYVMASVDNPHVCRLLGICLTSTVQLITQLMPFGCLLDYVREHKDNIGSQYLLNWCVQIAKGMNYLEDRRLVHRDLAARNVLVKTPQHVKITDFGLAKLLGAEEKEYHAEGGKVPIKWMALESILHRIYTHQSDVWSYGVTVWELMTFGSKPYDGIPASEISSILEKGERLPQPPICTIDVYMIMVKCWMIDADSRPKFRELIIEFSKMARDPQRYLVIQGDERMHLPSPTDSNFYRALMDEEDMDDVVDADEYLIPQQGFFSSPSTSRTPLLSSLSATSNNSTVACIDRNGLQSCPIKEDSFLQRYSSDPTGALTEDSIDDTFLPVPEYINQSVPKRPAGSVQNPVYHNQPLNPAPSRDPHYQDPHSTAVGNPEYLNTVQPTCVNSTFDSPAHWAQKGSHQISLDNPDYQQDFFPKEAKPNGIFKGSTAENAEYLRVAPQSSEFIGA
More on the design: method as in PMID 35424523. The following applies: cited from earlier work.

Series [9] has as its target T1, EGFR. Description: EGFR inhibitory assay. It counts as biochemical. The following applies: read-out: EGFR Inhibition IC50 ± SEM. How it is done: 4.2.2. EGFR inhibitory assay
Baculoviral expression vectors including pBlueBacHis2B and pFASTBacHTc were used […]
(1 picture or pasted object on this page, not shown here)
5ʹ upstream to the EGFR sequence comprised a sequence that encoded (His)6. Sf-9 cells were infected for 72h for protein expression. The pellets of Sf-9 cells were solubilized in a buffer containing sodium vanadate (100 μM), aprotinin (10 μg/mL), triton (1%), HEPES […]
centrifugation for 20 min.
Histidine-linked proteins were first eluted with 250 and then […]
enhancement solution was added to each well and the signal was recorded at excitation and […]
The autophosphorylation percentage inhibition by compounds was calculated using the following equation: […]

For series [10], the target named is BRAF^V600E. Description: BRAF^V600E inhibitory assay.
Target sequence in this assay (P28028 whole entry V585E): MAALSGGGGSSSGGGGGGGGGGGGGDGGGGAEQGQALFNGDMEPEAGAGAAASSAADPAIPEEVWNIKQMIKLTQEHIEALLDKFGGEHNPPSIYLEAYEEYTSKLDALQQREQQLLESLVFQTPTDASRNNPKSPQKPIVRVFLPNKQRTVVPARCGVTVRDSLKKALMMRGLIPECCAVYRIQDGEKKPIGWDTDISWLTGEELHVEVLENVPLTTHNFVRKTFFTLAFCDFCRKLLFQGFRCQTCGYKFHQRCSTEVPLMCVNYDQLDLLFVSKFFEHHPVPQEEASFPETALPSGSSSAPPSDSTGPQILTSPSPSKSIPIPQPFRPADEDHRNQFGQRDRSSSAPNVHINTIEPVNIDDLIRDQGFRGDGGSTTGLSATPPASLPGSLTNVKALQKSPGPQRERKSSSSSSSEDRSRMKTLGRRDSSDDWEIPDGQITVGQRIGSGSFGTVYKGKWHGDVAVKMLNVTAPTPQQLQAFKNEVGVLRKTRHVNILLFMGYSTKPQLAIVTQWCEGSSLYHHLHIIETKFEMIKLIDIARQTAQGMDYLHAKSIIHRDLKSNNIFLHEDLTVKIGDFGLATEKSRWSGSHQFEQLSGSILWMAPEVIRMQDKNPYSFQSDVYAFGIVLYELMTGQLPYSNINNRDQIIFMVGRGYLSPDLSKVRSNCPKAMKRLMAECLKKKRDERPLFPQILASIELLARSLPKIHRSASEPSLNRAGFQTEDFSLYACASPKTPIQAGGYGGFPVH
Description: V600E mutant BRAF kinase assay was performed to investigate the activity of tested compounds against BRAF. Mouse full-length GST-tagged BRAFV600E (7.5 ng, Invitrogen, PV3849) was pre-incubated with drug (1 µL) and assay dilution buffer (4 µL) for 60 min at 25 °C. In assay dilution buffer, a solution (5 µL) containing MgCl2 (30 mM), ATP (200 µM), recombinant human full length (200 ng) and N-terminal His-tagged MEK1 (Invitrogen) was added to start the assay, subsequent to incubation for 25 min at 25 °C. The assay was stopped using 5X protein denaturing buffer (LDS) solution (5 µL). To further denature the protein, heat (70° C) was applied for 5 min.
10 µL of each reaction was loaded into the precast plates and electrophoresis was allowed to proceed. After completion of electrophoresis, the front part of the precast gel plate (holding hot ATP) was cut and afterwards cast-off. The dried gel was developed using a phosphor screen.
served as positive control.

As to `COc1cccc2c1C(=O)c1c(O)c3c(c(O)c1C2=O)C[C@@](O)(C(=O)CO)C[C@@H]3O[C@H]1C[C@H](N)[C@H](O)[C@H](C)O1` [Doxorubicin, reference compound], the concentration for half-maximal inhibition (IC50) in [1] stood at 1 ± 0.02 µM; in series [2] it was 1.4 ± 0.08 µM; in series [3], 1.2 ± 0.03 µM; in series [4], 0.9 ± 0.02 µM; in series [5], 1100 nM.

On to `O=C(COc1ccc(C2=NNC(c3ccc(Cl)cc3)C2)cc1)Nc1ccc(C2=NNC(c3ccc(Br)cc3)C2)cc1` (centres unmarked) [Compound 10, 2-(4-(5-(4-Chlorophenyl)-4,5-dihydro-1H-pyrazol-3-yl)phenoxy)-N-(4-(5-(4-bromophenyl)-4,5-dihydro-1H-pyrazol-3-yl)phenyl)acetamide], for which the IC50 in [1] worked out at 3.2 ± 0.3 µM; in series [2], 3.2 ± 0.3 µM; in series [3], 3.1 ± 0.3 µM; in series [4], 2.9 ± 0.2 µM; in series [5], 3100 nM. Moreover, the viability at 96 h, 50 µM in series [6] is 89%.

On to `COc1ccc(C2CC(c3ccc(NC(=O)COc4ccc(C5=NNC(c6ccc(Cl)cc6)C5)cc4)cc3)=NN2)cc1` (centres unmarked) [Compound 9, 2-(4-(5-(4-Chlorophenyl)-4,5-dihydro-1H-pyrazol-3-yl)phenoxy)-N-(4-(5-(4-methoxyphenyl)-4,5-dihydro-1H-pyrazol-3-yl)phenyl)acetamide], for which the concentration for half-maximal inhibition (IC50) is 2.6 ± 0.2 µM in series [1]; 2.2 ± 0.2 µM in series [2]; 2.5 ± 0.2 µM in [3]; 1.9 ± 0.1 µM in series [4]; 2300 nM in [5]. In addition, the viability at 96 h, 50 µM in series [6] came to 89%.

For the molecule `O=C(COc1ccc(C2=NNC(c3ccc(Cl)cc3)C2)cc1)Nc1ccc(C2=NNC(c3ccccc3)C2)cc1` (centres unmarked) [Compound 8, 2-(4-(5-(4-Chlorophenyl)-4,5-dihydro-1H-pyrazol-3-yl)phenoxy)-N-(4-(5-phenyl-4,5-dihydro-1H-pyrazol-3-yl)phenyl)acetamide], the IC50 in [1] came to 4.6 ± 0.4 µM; in series [2], 4.3 ± 0.4 µM; in series [3], 4.5 ± 0.4 µM; in [4], 4.1 ± 0.4 µM; in [5], 4400 nM. In series [6], this molecule came in with a viability at 96 h, 50 µM of 90%.

Consider `O=C(COc1ccc(C2=NNC(c3ccc(Cl)cc3)C2)cc1)Nc1ccc(C2=NNC(c3ccc(Cl)cc3)C2)cc1` (centres unmarked) [Compound 11, 2-(4-(5-(4-Chlorophenyl)-4,5-dihydro-1H-pyrazol-3-yl)phenoxy)-N-(4-(5-(4-chlorophenyl)-4,5-dihydro-1H-pyrazol-3-yl)phenyl)acetamide], for which the IC50 in [1] is 2.9 ± 0.2 µM; in series [2] it was 2.9 ± 0.2 µM; in series [3] it was 3 ± 0.2 µM; in series [4], 2.7 ± 0.2 µM; in series [5], 2900 nM. Further, the viability at 96 h, 50 µM in series [6] was determined as 87%.

As to `Cc1c(Nc2nc3c(C(=O)NN)c(N)sc3s2)c(=O)n(-c2ccccc2)n1C` [II], the IC50 is 88 nM and 90 nM in [7]; 20 nM in [8].

Consider `COc1ccc(C2CC(c3ccc(OCC(=O)Nc4ccc(C5=NNC(c6ccc(F)cc6)C5)cc4)cc3)=NN2)cc1` (centres unmarked) [Compound 16, 2-(4-(5-(4-Methoxyphenyl)-4,5-dihydro-1H-pyrazol-3-yl)phenoxy)-N-(4-(5-(4-fluorophenyl)-4,5-dihydro-1H-pyrazol-3-yl)phenyl)acetamide], for which the IC50 came out at 3.8 ± 0.3 µM in [1]; 3.7 ± 0.3 µM in series [2]; 3.9 ± 0.3 µM in series [3]; 3.5 ± 0.3 µM in [4]; 3700 nM in series [5]. Also, in series [6], the viability at 96 h, 50 µM was determined as 89%.

With `COc1ccc(C2CC(c3ccc(OCC(=O)Nc4ccc(C5=NNC(c6ccc(Br)cc6)C5)cc4)cc3)=NN2)cc1` (centres unmarked) [Compound 14, 2-(4-(5-(4-Methoxyphenyl)-4,5-dihydro-1H-pyrazol-3-yl)phenoxy)-N-(4-(5-(4-bromophenyl)-4,5-dihydro-1H-pyrazol-3-yl)phenyl)acetamide], the IC50 in series [1] was 2 ± 0.1 µM; in [9], 104 ± 9 nM; in [2], 1.8 ± 0.1 µM; in series [3] it was 2 ± 0.1 µM; in series [4], 1.6 ± 0.1 µM; in series [10], 125 ± 10 nM. The same molecule returned a half-inhibitory concentration (IC50) in series [5] of 1850 nM. The same molecule showed a viability at 96 h, 50 µM in series [6] of 89%.

On to `COc1ccc(C2CC(c3ccc(OCC(=O)Nc4ccc(C5=NNC(c6ccc(Cl)cc6)C5)cc4)cc3)=NN2)cc1` (centres unmarked) [Compound 15, 2-(4-(5-(4-Methoxyphenyl)-4,5-dihydro-1H-pyrazol-3-yl)phenoxy)-N-(4-(5-(4-chlorophenyl)-4,5-dihydro-1H-pyrazol-3-yl)phenyl)acetamide], for which the IC50 was determined as 1.7 ± 0.1 µM in [1]; 93 ± 7 nM in series [9]; 1.4 ± 0.1 µM in series [2]; 1.7 ± 0.1 µM in series [3]; 1.2 ± 0.1 µM in series [4]; 98 ± 8 nM in series [10]. For the same molecule, the concentration for half-maximal inhibition (IC50) in [5] was 1500 nM. In [6], the viability at 96 h, 50 µM stood at 90%.

In the case of `COc1ccc(C2CC(c3ccc(OCC(=O)Nc4ccc(C5=NNC(c6ccc(C)cc6C)C5)cc4)cc3)=NN2)cc1` (centres unmarked) [Compound 13, 2-(4-(5-(4-Methoxyphenyl)-4,5-dihydro-1H-pyrazol-3-yl)phenoxy)-N-(4-(5-(2,4-dimethylphenyl)-4,5-dihydro-1H-pyrazol-3-yl)phenyl)acetamide], the half-inhibitory concentration (IC50) stood at 4.9 ± 0.4 µM in series [1]; 4.8 ± 0.4 µM in series [2]; 5 ± 0.4 µM in series [3]; 4.6 ± 0.4 µM in series [4]; 4800 nM in series [5]. In addition, the viability at 96 h, 50 µM in series [6] is 87%.
